Tested on: 843782-103-R-J1-PDC complex spheroid viability
Assay: Anticancer human tumor 843782-103-R-J1-PDC patient-derived lung adenocarcinoma cell line growth inhibition [RAS]
Settings: for IC50: curve of first compound; for viability, T/C: stronger effect = lower value
Source text: RAS pathway inhibitors in Combinations in Complex Spheroids
A high-throughput screen of multi-cell type tumor spheroids was designed to identify active combinations of RAS pathway inhibitors and targeted small molecules. Complex spheroids include a stromal component modeled by human endothelial cells (HUVEC) and fibroblasts modeled by human mesenchymal stem cells (MSCs). The concentration ranges selected for each drug and investigational agent were based upon clinically achievable concentrations if the clinical Cmax of the agent was known.
Compounds. The drugs and investigational agents: abemaciclib (NSC768073), cobimetinib (NSC768068), divarasib (GDC6063, NSC841802), docetaxel (NSC628503), GDC-1971 (RLY-1971, NSC841576), gemcitabine (NSC613327), inavolisib (NSC800729), ipatasertib (NSC767898), KB-0742 (NSC834161), MRTX-1133 (NSC836407), osimertinib (NSC779217), RMC-4630 (NSC839698), RMC-6236 (NSC851965), RMC-6291 (NSC852671), Ro-3306 (NSC812927), sapanisertib (NSC764658), SN-38 (NSC673596), staurosporine (NSC755774), SY5609 (NSC837396), and tovorafenib (DAY101, NSC766906), were obtained from the National Cancer Institute (NCI) Developmental Therapeutics Program Chemical Repository. The FDA-approved anticancer drug set is available from the NCI Developmental Therapeutics Program. […] The stock solutions were prepared in dimethyl sulfoxide (DMSO, Sigma-Aldrich, St. Louis, MO, cat. D2650) at 800-fold the tested concentration and stored at -70 degrees C prior to their use. All drugs and investigational agents were tested over a range starting from a high concentration at or near the clinical Cmax and decreasing in half-log increments. If the clinical Cmax for an agent had not been determined, the highest concentration tested was 10 microM.
Cell Culture. All cells were maintained in an incubator at 37 degrees C and 5% CO2 with 95% humidity. The PDC lines were cultured according to standard operating procedures established by the NCI PDMR. All PDCs were thawed and cultured in Matrigel-coated flasks prepared with a working solution of 1X Ham's F-12 nutrient mix, without supplementation (Invitrogen, Waltham, MA, cat. 11765054), 100 U/mL penicillin-streptomycin (Invitrogen, cat. 15140122), and 2.5% Matrigel (Corning Inc., Corning, NY, cat. 354248) for the first three passages. The 362531-283-R-J2-PDC and 782815-120-R-J1-PDC lines were cultured in 6C/Colon 1B media, which includes advanced DMEM/F-12 (Thermo Fisher Scientific, cat. 12634028), 10 mM HEPES (Thermo Fisher Scientific, cat. 15630080), 1X GlutaMAX supplement (Thermo Fisher Scientific, cat. 35050061), 0.1 mg/mL primocin (InvivoGen, San Diego, CA, cat. ant-pm-2), 10% defined fetal bovine serum, heat inactivated (HyClone Laboratories Inc., Logan, UT, cat. SH30070.03HI), 50% L-WRN conditioned media (ATCC, cat. CRL-3276), 1.25 mM N-Acetyl-L-cysteine (Sigma-Aldrich, cat. A9165), 10 mM nicotinamide (Sigma-Aldrich, cat. N0636), 1X B-27 supplement (Thermo Fisher Scientific, cat. 17504044), 1X N-2 supplement (Thermo Fisher Scientific, cat. 17502048), 50 ng/mL human EGF (Thermo Fisher Scientific, cat. PHG0311), and 10 microM Y-27632 dihydrochloride (Tocris Bioscience, cat. 1254). The K12877-001-R-J1-PDC line was cultured in 6I media, which includes all 6C/Colon 1B media plus 10 ng/mL human FGF-10 (PeproTech, cat. 100-26), 1 ng/mL human FGF-2 (PeproTech, cat. 100-18B), 1 µM prostaglandin E2 (Tocris Bioscience, cat. 2296), […] hydrocortisone (Sigma-Aldrich, cat. H4001), and […] bovine insulin (Sigma-Aldrich, cat. I6634). The K86415-001-R-J1-PDC line was cultured in 6D media, which includes all 6C/Colon 1B media components minus the L-WRN conditioned media. The 485176-168-R4-J1-PDC was cultured in PANC media, which includes all 6C/Colon 1B media plus 100 ng/mL human FGF-10 (PeproTech, cat. 100-26), 500 nM SB-431542 (Selleckchem, cat. S1067), and 10 nM gastrin (Tocris Bioscience, cat. 3006). […]
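Also: viability read after seven days of compound exposure.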

Cc1nc(N2CCC3(CC2)COC(C)C3N)c(CO)nc1Sc1ccnc(N)c1Cl (configuration not stated) + CCn1c(-c2cccnc2C(C)OC)c2c3cc(ccc31)N1CCOC(CC(NC(=O)C(C(C)C)N(C)C(=O)C3(F)CCN(C(=O)C#CC(C)(C)N(C)C)CC3)C(=O)N3CCCC(N3)C(=O)OCC(C)(C)C2)C1
IC50 (second compound 0.000949 µM): 55 nM
IC50 (second compound 0.003 µM): 50.4 nM
IC50 (second compound 0.00949 µM): 53.8 nM
IC50 (second compound 0.03 µM): 44.4 nM
IC50 (second compound 0.0949 µM): 45.3 nM
IC50 (second compound 0.3 µM): 36.9 nM
viability, T/C (second compound 0.000949 µM, first compound 0.0316 µM): 57.4%
viability, T/C (second compound 0.000949 µM, first compound 0.1 µM): 43.4%
viability, T/C (second compound 0.000949 µM, first compound 0.316 µM): 31.3%
viability, T/C (second compound 0.000949 µM, first compound 1 µM): 21%
viability, T/C (second compound 0.000949 µM, first compound 3.16 µM): 20.8%
viability, T/C (second compound 0.000949 µM, first compound 10 µM): 17.4%
viability, T/C (second compound 0.003 µM, first compound 0.0316 µM): 55.1%
viability, T/C (second compound 0.003 µM, first compound 0.1 µM): 42%
viability, T/C (second compound 0.003 µM, first compound 0.316 µM): 31.6%
viability, T/C (second compound 0.003 µM, first compound 1 µM): 22.2%
viability, T/C (second compound 0.003 µM, first compound 3.16 µM): 17.3%
viability, T/C (second compound 0.003 µM, first compound 10 µM): 20.6%
viability, T/C (second compound 0.00949 µM, first compound 0.0316 µM): 55.1%
viability, T/C (second compound 0.00949 µM, first compound 0.1 µM): 44.2%
viability, T/C (second compound 0.00949 µM, first compound 0.316 µM): 28.6%
viability, T/C (second compound 0.00949 µM, first compound 1 µM): 21.3%
viability, T/C (second compound 0.00949 µM, first compound 3.16 µM): 23.1%
viability, T/C (second compound 0.00949 µM, first compound 10 µM): 16.4%
viability, T/C (second compound 0.03 µM, first compound 0.0316 µM): 53.8%
viability, T/C (second compound 0.03 µM, first compound 0.1 µM): 40.2%
viability, T/C (second compound 0.03 µM, first compound 0.316 µM): 34.5%
viability, T/C (second compound 0.03 µM, first compound 1 µM): 27.6%
viability, T/C (second compound 0.03 µM, first compound 3.16 µM): 18.6%
viability, T/C (second compound 0.03 µM, first compound 10 µM): 17.8%
viability, T/C (second compound 0.0949 µM, first compound 0.0316 µM): 55.4%
viability, T/C (second compound 0.0949 µM, first compound 0.1 µM): 37%
viability, T/C (second compound 0.0949 µM, first compound 0.316 µM): 34.3%
viability, T/C (second compound 0.0949 µM, first compound 1 µM): 24.1%
viability, T/C (second compound 0.0949 µM, first compound 3.16 µM): 19.4%
viability, T/C (second compound 0.0949 µM, first compound 10 µM): 23.6%
viability, T/C (second compound 0.3 µM, first compound 0.0316 µM): 51.3%
viability, T/C (second compound 0.3 µM, first compound 0.1 µM): 42.1%
viability, T/C (second compound 0.3 µM, first compound 0.316 µM): 31.6%
viability, T/C (second compound 0.3 µM, first compound 1 µM): 22.6%
viability, T/C (second compound 0.3 µM, first compound 3.16 µM): 20.8%
viability, T/C (second compound 0.3 µM, first compound 10 µM): 21.4%
